Laboratory results as given in paper PMC11879280, “Antimicrobial activity of peptoids against Metallo-β-lactamase-producing Klebsiella pneumoniae, Acinetobacter baumannii, Pseudomonas aeruginosa, and other WHO priority pathogens, including Candida auris” (Journal of Applied Microbiology, 2025).
Read-outs that look alike come from different tables or passages of the source. Square brackets hold non-standard residues; d marks the D form. Ends that are not written are not given here. Peptide text beside a SMILES is read from it. Nspe(4-Br) = C[C@H](NCC(=O)O)c1ccc(Br)cc1; N(tridecyl)Gly = CCCCCCCCCCCCCNCC(=O)O; Nspe = C[C@H](NCC(=O)O)c1ccccc1; Nlys = NCCCCNCC(=O)O

Experiments:
[1] = test system: MBL-producing bacteria; experiment: Geometric mean MIC, therapeutic index and selectivity ratio, MBL-producing bacteria; type: cell-based
Procedure: Briefly, bacteria were suspended in cation-adjusted Mueller–Hinton broth (CAMHB; Oxoid, UK) for antibiotics, or MHB (Oxoid, UK) for peptidomimetics to obtain 5 × 10^5 colony forming unit (CFU) ml^−1. […] Positive controls contained only microbes, and blanks contained only media. Microbial suspensions (100 µl) were added to wells, plates wrapped, and incubated at 37°C, 120 rpm for 16–20 h. After incubation, suspensions were removed, log10 diluted, and plated on Trypticase Soya Agar with phosphatidylcholine and Tween 80 to determine minimum bactericidal or fungicidal concentration (MBC or MFC). […] Geometric mean MIC of the peptoids were calculated to evaluate the broad overview of antimicrobial activity across the pathogens.
The test was performed as per the manufacturer’s instructions. Briefly, the strips were applied to a lawn culture of bacteria maintained at 1.5 × 10^8 CFU ml^−1 on Mueller–Hinton agar (Oxoid, UK) and incubated for 20 h at 37°C.
The therapeutic indices (TIs) of the compounds were calculated with the use of following formula: […]

[2] = test system: horse red blood cells (RBCs); experiment: Haemolysis assay; type: cell-based
Procedure: The haemolytic activity of the peptidomimetics was performed to determine mammalian cell safety. This assay used horse red blood cells (RBCs) (Sigma–Aldrich, USA) as described previously (Willcox et al. [2008], Chongsiriwatana et al. [2017], Yasir et al. [2019b]). RBCs were washed three times with PBS at 470 g for 5 min. Peptoids (0.5–250 μg ml^−1) were prepared in PBS and added to washed RBCs, then incubated at 37°C for 4 h. After incubation, cells were centrifuged at 1057 g for 10 min, and the supernatant’s OD at 540 nm was measured for lysis. PBS-only RBCs served as the negative control (no haemolysis), and Milli-Q water-treated RBCs as the positive control (100% lysis). Percent haemolysis was calculated as: (ODT − ODNC)/(ODPC − ODNC) × 100, where ODT, ODNC, and ODPC are the absorbances of the test, negative, and positive controls, respectively. This experiment was performed in triplicate.

[3] = test system: A. baumannii 005
Outline: (§1)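 Each strain, at 5 × 10^5 CFU ml^−1, is exposed to compound in Mueller–Hinton-based broth (cation-adjusted for antibiotics) and incubated 16–20 h, 37°C, 120 rpm. Bactericidal concentrations come from plating log10 dilutions of the wells on supplemented agar.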

[4] = test system: E. coli 0010
Outline: as §1

[5] = test system: P. aeruginosa 216
Outline: as §1

[6] = test system: P. aeruginosa 33
Outline: as §1

[7] = test system: MBL phenotypes of A. baumannii; details: MBL phenotypes of A. baumannii
Procedure: Briefly, bacteria were suspended in cation-adjusted Mueller–Hinton broth (CAMHB; Oxoid, UK) for antibiotics, or MHB (Oxoid, UK) for peptidomimetics to obtain 5 × 10^5 colony forming unit (CFU) ml^−1. […] Positive controls contained only microbes, and blanks contained only media. Microbial suspensions (100 µl) were added to wells, plates wrapped, and incubated at 37°C, 120 rpm for 16–20 h. […] Geometric mean MIC of the peptoids were calculated to evaluate the broad overview of antimicrobial activity across the pathogens.

[8] = horse RBCs in PBS, 37°C, 4 h, value in brackets
[9] = A. baumannii 005, MHB (melimine/Mel4 with 0.2% BSA, 0.01% acetic acid), mean MIC
[10] = E. coli 0010, MHB (melimine/Mel4 with 0.2% BSA, 0.01% acetic acid), mean MIC
[11] = P. aeruginosa 216, MHB (melimine/Mel4 with 0.2% BSA, 0.01% acetic acid), mean MIC
[12] = P. aeruginosa 33, MHB (melimine/Mel4 with 0.2% BSA, 0.01% acetic acid), mean MIC
[13] = horse RBCs in PBS, 37°C, 4 h, OD 540 nm, triplicate, best fit curve
[14] = A. baumannii 005, value in brackets
[15] = E. coli 0010, value in brackets
[16] = P. aeruginosa 33, value in brackets

| Compound | Geometric mean MICMBL [1] | HD10 (10% haemolytic dose) [2, 8] | HD50 (50% haemolytic dose) [2, 8] | HD10 (10% haemolytic dose) ([2]; red cells of horse, 4 h) | HD50 (50% haemolytic dose) ([2]; red cells of horse, 4 h) | MIC of peptidomimetics [3]; 005 | MIC of peptidomimetics [3, 9] | MIC of peptidomimetics [4]; 0010 | MIC of peptidomimetics [4, 10] | MIC of peptidomimetics [5]; 216 | MIC of peptidomimetics [5, 11] | MIC of peptidomimetics [6]; 33 | HD10 (10% haemolytic dose) [2] | HD50 (50% haemolytic dose) [2] | MIC of peptidomimetics [6, 12] | HD10 (10% haemolytic dose) [2, 13] | HD50 (50% haemolytic dose) [2, 13] | also measured |
| --- | --- | --- | --- | --- | --- | --- | --- | --- | --- | --- | --- | --- | --- | --- | --- | --- | --- | --- |
| C[C@@H](c1ccccc1)N(CC(N)=O)C(=O)CN(C(=O)CN(CCCCN)C(=O)CN(C(=O)CN(C(=O)CN(CCCCN)C(=O)CN(C(=O)CN(C(=O)CN(CCCCN)C(=O)CN(C(=O)CN(C(=O)CNCCCCN)[C@@H](C)c1ccccc1)[C@@H](C)c1ccccc1)[C@@H](C)c1ccccc1)[C@@H](C)c1ccccc1)[C@@H](C)c1ccccc1)[C@@H](C)c1ccccc1)[C@@H](C)c1ccccc1 [TM1] (H-[Nlys][Nspe][Nspe][Nlys][Nspe][Nspe][Nlys][Nspe][Nspe][Nlys][Nspe][Nspe]-NH2) | 11.0 µg/mL | 4.4 µmol/L | 24.6 µmol/L | 8 µg/mL | 44.8 µg/mL | 2.1 µM | 3.9 µg/mL | 8.6 µM | 15.6 µg/mL | 8.6 µM | 15.6 µg/mL | 8.6 µmol/L |  |  |  |  |  | MIC of peptidomimetics [6]: 15.6 (8.6) µg ml^−1; MIC [7]: ≤ 7.8 µg/mL |
| C[C@@H](c1ccc(Br)cc1)N(CC(N)=O)C(=O)CN(C(=O)CN(CCCCN)C(=O)CN(C(=O)CN(C(=O)CNCCCCN)[C@@H](C)c1ccccc1)[C@@H](C)c1ccc(Br)cc1)[C@@H](C)c1ccccc1 [TM2] (H-[Nlys][Nspe][Nspe(4-Br)][Nlys][Nspe][Nspe(4-Br)]-NH2) | 28.7 µg/mL |  |  | 20 µg/mL | 64 µg/mL | 7.2 µM | 7.8 µg/mL | 58.1 µM | 62.5 µg/mL | 14.5 µM | 15.6 µg/mL | 29.0 µmol/L | 18.6 µmol/L | 59.5 µmol/L | 31.3 µg/mL |  |  |  |
| C[C@@H](c1ccccc1)N(CC(N)=O)C(=O)CN(CCCCN)C(=O)CN(C(=O)CN(C(=O)CN(CCCCN)C(=O)CN(C(=O)CN(C(=O)CN(CCCCN)C(=O)CN(C(=O)CN(C(=O)CNCCCCN)[C@@H](C)c1ccccc1)[C@@H](C)c1ccccc1)[C@@H](C)c1ccccc1)[C@@H](C)c1ccccc1)[C@@H](C)c1ccccc1)[C@@H](C)c1ccccc1 [TM6] (H-[Nlys][Nspe][Nspe][Nlys][Nspe][Nspe][Nlys][Nspe][Nspe][Nlys][Nspe]-NH2) | 18.6 µg/mL | 26.1 µmol/L | > 154.4 µmol/L |  |  |  | 7.8 µg/mL |  | 62.5 µg/mL |  | 15.6 µg/mL |  |  |  | 31.3 µg/mL | 43.2 µg/mL | > 256 µg/mL | MIC of peptidomimetics [3, 14]: 4.7 µM; MIC of peptidomimetics [4, 15]: 37.7 µM; MIC of peptidomimetics ([5]; P. aeruginosa 216, value in brackets): 9.4 µM; MIC of peptidomimetics [6, 16]: 18.8 µmol/L |
| C[C@@H](c1ccc(Br)cc1)N(CC(=O)N(CCCCN)CC(=O)N(CC(=O)N(CC(=O)N(CCCCN)CC(N)=O)[C@@H](C)c1ccc(Br)cc1)[C@@H](C)c1ccccc1)C(=O)CN(C(=O)CNCCCCN)[C@@H](C)c1ccccc1 [TM12] (H-[Nlys][Nspe][Nspe(4-Br)][Nlys][Nspe][Nspe(4-Br)][Nlys]-NH2) | 62.5 µg/mL |  |  | 80 µg/mL | > 256 µg/mL | 51.8 µM | 62.5 µg/mL | 103.8 µM | 125 µg/mL | 25.9 µM | 31.3 µg/mL | 3.3 µmol/L | 66.4 µmol/L | 212.6 µmol/L | 3.9 µg/mL |  |  |  |
| C[C@@H](c1ccc(Br)cc1)N(CC(=O)N(CCCCN)CC(=O)N(CC(=O)N(CC(=O)N(CCCCN)CC(N)=O)[C@@H](C)c1ccc(Br)cc1)[C@@H](C)c1ccc(Br)cc1)C(=O)CN(C(=O)CNCCCCN)[C@@H](C)c1ccc(Br)cc1 [TM14] (H-[Nlys][Nspe(4-Br)][Nspe(4-Br)][Nlys][Nspe(4-Br)][Nspe(4-Br)][Nlys]-NH2) | 24.1 µg/mL |  |  | 9.6 µg/mL | 24 µg/mL | 11.4 µM | 15.6 µg/mL | 23.0 µM | 31.3 µg/mL | 11.5 µM | 15.6 µg/mL | 11.5 µmol/L | 7.0 µmol/L | 17.6 µmol/L | 15.6 µg/mL |  |  |  |
| CCCCCCCCCCCCCNCC(=O)N(CCCCN)CC(=O)N(CC(=O)N(CC(=O)N(CCCCN)CC(=O)N(CCCCN)CC(N)=O)[C@@H](C)c1ccccc1)[C@@H](C)c1ccccc1 [TM15] (H-[N(tridecyl)Gly][Nlys][Nspe][Nspe][Nlys][Nlys]-NH2) | 52.6 µg/mL |  |  | 23.6 µg/mL | 86.4 µg/mL | 64.9 µM | 62.5 µg/mL | 64.9 µM | 62.5 µg/mL | 16.2 µM | 15.6 µg/mL | 16.2 µmol/L | 24.5 µmol/L | 89.7 µmol/L | 15.6 µg/mL |  |  |  |
| KNKRKRRRRRRGGRRRR [Mel4] | 162.1 µg/mL | > 109 µmol/L | > 109 µmol/L |  |  |  | 250 µg/mL |  | 250 µg/mL |  | 250 µg/mL |  |  |  | 62.5 µg/mL | > 256 µg/mL | > 256 µg/mL |  |
| TLISWIKNKRKQRPRVSRRRRRRGGRRRR [Melimine] | 162.1 µg/mL | > 67.6 µmol/L | > 67.7 µmol/L |  |  |  | 125 µg/mL |  | 250 µg/mL |  | 500 µg/mL |  |  |  | 62.5 µg/mL | > 256 µg/mL | > 256 µg/mL | MIC of peptidomimetics [3, 14]: 33.0 µM; MIC of peptidomimetics [4, 15]: 66.0 µM; MIC of peptidomimetics [6, 16]: 16.5 µmol/L |
